Assay [1] has as its system human T-leukemia Jurkat cells. Briefly: MTT cell viability assay, Jurkat. It is filed as cell-based. The settings on record: 72 h. The method, then: (§1) The MTT cell viability assay was performed 72 h after cells treatment with various concentrations of studied compounds and doxorubicin, a reference drug. […] It is known that ABCB1 (P-glycoprotein), MRP1/ABCC1 (multidrug resistance protein 1), and BCRP/BCG2 (breast cancer resistance protein) have been reported to be key players in resistance to chemotherapy. […] The p53 has diverse mutations in almost all human tumors, stimulating their hyper-proliferation, invasion/metastasis, and thus, influencing the potency of various chemotherapeutics (i.e., platins and anti-metabolites).
(§2) Human colon carcinoma HCT116 cells, human breast adenocarcinoma cells of MCF-7 line, human T-leukemia Jurkat cells, human chronic myelogenous leukemia K562 cells, and human keratinocytes of HaCaT line were from the Cell Collection of R.E. Kavetsky Institute of Experimental Pathology, Oncology and Radiobiology (Kyiv, Ukraine). […]
(§3) MTT assay was used to examine the viability of tumor and pseudo-normal cells after their treatment with studied thiopyrano[2,3-d]thiazole derivatives and doxorubicin (Actavis S.R.L., Bucharest, Romania). […] An absorbance Reader BioTek ELx800 (BioTek Instruments, Inc., Winooski, VT, USA) was used to measure the reaction product.

The test system of assay [2] is panel of sixty cancer cell lines. Description: NCI single-dose (10 μM) anticancer screen, sulforhodamine B, 60-cell-line panel. It counts as cell-based, human. Particulars: 48 h; for Mean Growth, %: growth percent vs untreated control, 60 cell lines; for Range of Growth, %: range over 60 cell lines. Here is the method: Considering the results of previous studies of fused thiazolidinones and their analogs, a series of thiopyrano[2,3-d]thiazoles with naphthoquinone fragments in the structure were studied for their anticancer activity. Thus, synthesized thiopyranothiazole derivatives 3.5 and 3.6 were selected by the National Cancer Institute (NCI), U.S., for their anticancer activity at 10 μM concentration toward a panel of sixty cancer cell lines representing nine different types (leukemia, melanoma, lung, colon, CNS, ovarian, renal, prostate, and breast cancers) (Figures S13–S14). Selection for screening based on new derivatives’ ability to add diversity to the NCI small molecules collection and anticancer assays were performed according to the NCI guidelines and protocols previously described. The compounds were added at the mentioned concentration, and the cell cultures were incubated for 48 h. The results for each compound were reported as the growth percent (GP%) of treated cells compared with untreated control cells.
Anticancer in vitro assay was performed on the human tumor cell lines panel derived from nine neoplastic diseases by the protocol of the Drug Evaluation Branch, National Cancer Institute, Bethesda, MD, USA [44, 45, 46]. Tested compounds were added to the culture at a single concentration (10^−5 M), and the cultures were incubated for 48 h. Endpoint determinations were made with a protein binding dye, sulforhodamine B. Results for each tested compound were reported as the GP% of the treated cells compared to untreated control cells. GP% was spectrophotometrically evaluated vs. controls not treated with test agents.

Assay [3] relates to human chronic myelogenous leukemia K562 cells. Description: MTT cell viability assay, K562. It is filed as cell-based. Particulars: Homo sapiens, K562, 72 h. The method, then:
as §1
(§4) Human colon carcinoma HCT116 cells, human breast adenocarcinoma cells of MCF-7 line, human T-leukemia Jurkat cells, human chronic myelogenous leukemia K562 cells, and human keratinocytes of HaCaT line were from the Cell Collection of R.E. Kavetsky Institute of Experimental Pathology, Oncology and Radiobiology (Kyiv, Ukraine). Murine macrophages of J774.2 line were a generous gift from Professor Sir John Vane (William Harvey Research Institute, London, UK) via Professor Janusz Marcinkiewicz (Jagiellonian University Medical College, Krakow, Poland). Human colon carcinoma HCT116 p53-/- cells with knockdown of P53 gene, as well as human epidermoid cervix carcinoma KB3-1 cells and its ABCB1-overexpressing subline KBC-1, were kindly provided by Professor W. Berger (Institute of Cancer Research, Medical University of Vienna, Austria). […] Human leukemia monocytic THP-1 cells were kindly provided by Professor M. Herrmann (Department of Internal Medicine, Institute for Clinical Immunology and Rheumatology, University of Erlangen-Nuremberg, Germany). Cells were cultured in DMEM or RPMI-1640 medium supplemented with 10% fetal bovine serum (all were purchased from Biowest, Nuaille, France) at 37 °C in a humidified atmosphere containing 5% CO2.
(§5) MTT assay was used to examine the viability of tumor and pseudo-normal cells after their treatment with studied thiopyrano[2,3-d]thiazole derivatives and doxorubicin (Actavis S.R.L., Bucharest, Romania). Cells were seeded in 96-well plates at a density of 3–5 × 103. After 24 h, cells were treated with compound […], 1,4-NQ (0.1–100 µM), and doxorubicin (0.1–100 µM). After incubation for 72 h, MTT reagent (Sigma-Aldrich, St. Louis, MO, USA) was added to each well, according to the Sigma-Aldrich protocol. An absorbance Reader BioTek ELx800 (BioTek Instruments, Inc., Winooski, VT, USA) was used to measure the reaction product.
On the technique in general: Tetrazolium assays rely on reduction of a dye to a coloured formazan, in cell work by metabolically active cells.

Assay [4] relates to Murine macrophages of J774.2 line. Briefly: MTT cell viability assay, J774.2. Particulars: pseudo-normal murine macrophages. It counts as cell-based. Here is the method: as §1, §4, §5
For assay [5], the system named is human epidermoid cervix carcinoma KB3-1 cells. Description: MTT cell viability assay, KB3-1. It is filed as cell-based. The settings on record: Homo sapiens, KB 3-1, 72 h. The method, then: as §1, §4, §5
The test system of the next assay is KB3-1 cells. Description: Fluorescence microscopy of cells, Hoechst-33342 staining. It is filed as cell-based, human. The settings on record: 1 µM, 24 h. The method, then:
One can also see giant KB3-1 cells with abnormal nuclei and looser chromatin (Figure 7B). The mitotic catastrophe may occur during or after aberrant mitosis. Mitotic catastrophe has been reported as a special example of apoptosis affecting mitochondrial membrane permeabilization and caspase activation. […] Thus, compound 3.6 induced pro-apoptotic cytomorphological changes in treated KB3-1 cells.
The KB3-1 cells were seeded in 24-well plates at 5 × 10^5/mL and then treated for an additional 24 h with compound […] (1 μM) and doxorubicin (1 μM). Cells were stained with 0.2–0.5 µg/mL of Hoechst-33342 and incubated for 20–30 min before the cell examination. A Zeiss fluorescent microscope (Carl Zeiss, Jena, Germany), AxioImager A1 camera (at 400× magnification), and AxioVision image analysis software Release 4.6.3.0 for Carl Zeis microscopy (Imaging Associates Ltd., Cork, Ireland, UK) were used for cells examination. All microphotographs were additionally analyzed using ImagePro7 software (Media Cybernetics, Rockville, MD, USA).

Assay [6] has as its system Human leukemia monocytic THP-1 cells. Briefly: MTT cell viability assay, THP-1. Particulars: 72 h. It counts as cell-based. Here is the method: as §1, §2, §3
For assay [7], the system named is Human colon carcinoma HCT116 cells (HCT116wt). Briefly: MTT cell viability assay, HCT116wt. It counts as cell-based. Particulars: Homo sapiens, HCT-116, 72 h. Here is the method:
as §1, §4, §5

A further assay deals with Jurkat cells. Description: DNA laddering (DNA extraction and gel electrophoresis). It counts as cell-based, human. The method, then:
DNA extraction and gel electrophoresis were performed as described by Herrmann and others. Jurkat cells were collected by centrifugation; lysed in a lysis buffer (1% NP-40 in 20 mM EDTA, 50 mM Tris-HCl, pH 7.5; 10 µL per 10 6 cells, minimum 50 µL). After centrifugation for 5 min at 1600× g, the supernatant was collected and the extraction was repeated with the same amount of lysis buffer. Supernatants were brought to 1% SDS and treated for 2 h with RNase A (final concentration 5 µg/mL) at 56 °C. Then, proteinase K was added (final concentration 2.5, µg/mL) and incubated for 2 h at 37 °C. After adding 1/2 volume of 10 M ammonium acetate, the DNA was precipitated with 2.5 vol. Ethanol, dissolved in gel loading buffer, and separated by electrophoresis in 1% agarose gels containing Ethidium bromide (at 70 V).

SMILES strings stand for the structures.

Usually IC50 stands for the concentration at which inhibition is half-maximal. As to `O=C1C2=C(C(=O)c3ccccc31)C(CCc1ccccc1)c1sc(=O)[nH]c1S2` (centres unmarked) [Compound 3.6, 11-Phenethyl-3,11-dihydro-2H-benzo[6,7]thiochromeno[2,3-d]thiazole-2,5,10-trione], the IC50 in assay [1] was found to be 760 nM; in assay [3], 25700 nM; in [4] (Mus musculus, J774.2, 72 h) it was 9570 nM; in [5], 27700 nM; in assay [6], 7940 nM; in assay [7], 6370 nM. For the same compound, in [2], the “Mean Growth, %” value was found to be 90.58%. For the same compound, the “Range of Growth, %” value in assay [2] was in the range of 45.25 to 130.11%. Further, the cytomorphological alterations result in the assay on KB3-1 cells is “shrunk, with condensed chromatin and membrane blabbing”. Also, the DNA laddering result was “slight laddering of DNA” in the assay on Jurkat cells (1 µM); “necrotic degradation of DNA” in the assay on Jurkat cells (2.5 µM and 5 µM); “extreme DNA fragmentation” with Jurkat cells (10 µM and 25 µM).

For `COc1cccc2c1C(=O)c1c(O)c3c(c(O)c1C2=O)C[C@@](O)(C(=O)CO)C[C@@H]3O[C@H]1C[C@H](N)[C@H](O)[C@H](C)O1` [Doxorubicin, doxorubicin, reference compound], the IC50 in assay [1] was 670 nM; in assay [3], 620 nM; in assay [4] (72 h, listed as Dox) it was 970 nM; in assay [4] (Mus musculus, J774.2, 72 h), 800 to 1000 nM; in [5], 730 nM; in assay [6] it was 14000 nM. In assay [7], this compound returned an IC50 of 70 nM. Moreover, the “Mean Growth, %” value in [2] is given as −20.30%. Moreover, the “Range of Growth, %” value in assay [2] is recorded as −86.40 to 72.90%. Besides, the cytomorphological alterations result in the assay with KB3-1 cells is “chromatin condensation and membrane blabbing”. Further, the DNA laddering result in the assay with Jurkat cells (0.5 µM) is “more necrotic changes in treated Jurkat cells than apoptotic ones”.

These data come from article PMC9658586, “1,4-Naphthoquinone Motif in the Synthesis of New Thiopyrano[2,3-d]thiazoles as Potential Biologically Active Compounds” (Molecules, 2022).
